Experimental data as given in BigSolDB 2.1.

CCCSc1nc(N[C@@H]2C[C@H]2c2ccc(F)c(F)c2)c2nnn([C@@H]3C[C@H](OCCO)[C@@H](O)[C@H]3O)c2n1
solubility (mole fraction)
Conditions	273.15 K	278.15 K	283.15 K	288.15 K	293.15 K	298.15 K	303.15 K	308.15 K	313.15 K
in 2-butanone	0.0218	0.0269	0.0321	0.038	0.0439	0.051	0.0584	0.0673	0.0776
in acetonitrile	0.000876	0.00115	0.00144	0.00179	0.00217	0.0026	0.00309	0.00359	0.00416
in cyclohexanone	0.0265	0.0316	0.0374	0.0437	0.051	0.0578	0.0661	0.0744	0.0832
in ethanol	0.00315	0.0041	0.00503	0.00625	0.00747	0.00881	0.0105	0.0125	0.0149
in ethyl acetate	0.00409	0.00504	0.00608	0.00716	0.00855	0.0101	0.0118	0.0135	0.0157
in isobutanol	0.00148	0.00176	0.00209	0.00243	0.00284	0.00324	0.00373	0.00425	0.00484
in isopropanol	0.00251	0.00286	0.00325	0.00364	0.00404	0.00446	0.00496	0.00547	0.00599
in methanol	0.00494	0.00615	0.00741	0.0092	0.0114	0.014	0.0169	0.0203	0.0239
in n-butanol	0.00289	0.00363	0.0045	0.00542	0.00656	0.00768	0.00895	0.0103	0.0118
in n-octanol	0.0021	0.00233	0.00263	0.00292	0.00327	0.00367	0.00406	0.00456	0.0051
in n-propanol	0.00268	0.00327	0.00389	0.00462	0.00535	0.00612	0.00692	0.00776	0.00872
in toluene	3e-05	3.8e-05	4.9e-05	6.3e-05	8e-05	0.000102	0.00013	0.00016	0.000196
